For one assay, the target named is Rhodesain (Trypanosoma brucei rhodesiense, UniProt Q95PM0). Description: Inhibition of full length Trypanosoma brucei rhodesiense rhodesain expressed in pichia pastoris using Cbz-Phe-Arg-AMC as substrate measured for 10 mins by fluorometric enzyme assays.
The subject of assay [1] is Trypanosoma brucei brucei. Description: Antitrypanosomal activity against Trypanosoma brucei brucei measured after 24 hrs by ATPlite assay. Type of assay: functional, organism-based. For orientation: Cellular ATP, detected with luciferase, serves as a proxy for viable cell number.
In assay [2] the test system is Trypanosoma brucei brucei. Description: Antitrypanosomal activity against Trypanosoma brucei brucei measured after 48 hrs by ATPlite assay. Type of assay: functional, organism-based.
Assay [3] deals with Rhodesain (Trypanosoma brucei rhodesiense) (UniProt Q95PM0). Description: Competitive inhibition of Trypanosoma brucei rhodesiense rhodesain expressed in pichia pastoris using varying concentration of Cbz-Phe-Arg-AMC as substrate by fluorometric enzyme assays.

Molecules are shown by their SMILES. Calls of active or inactive are those of the source. No cut-off for these calls is given here.

Sequence of Rhodesain (Q95PM0 whole entry): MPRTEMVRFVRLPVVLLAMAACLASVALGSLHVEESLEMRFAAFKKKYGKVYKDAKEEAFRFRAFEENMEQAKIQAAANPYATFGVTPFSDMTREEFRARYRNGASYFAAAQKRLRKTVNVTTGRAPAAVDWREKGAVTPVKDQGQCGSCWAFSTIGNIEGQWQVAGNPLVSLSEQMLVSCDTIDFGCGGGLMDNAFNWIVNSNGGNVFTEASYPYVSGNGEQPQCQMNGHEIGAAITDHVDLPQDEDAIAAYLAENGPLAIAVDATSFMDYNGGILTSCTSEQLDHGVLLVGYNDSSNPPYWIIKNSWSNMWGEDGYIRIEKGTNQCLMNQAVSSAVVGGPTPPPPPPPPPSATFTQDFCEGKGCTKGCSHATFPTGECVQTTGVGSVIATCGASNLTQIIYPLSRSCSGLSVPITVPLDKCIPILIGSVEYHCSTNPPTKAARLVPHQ
Sequence of Rhodesain (Trypanosoma brucei rhodesiense) (Q95PM0 1-450): as the sequence (Q95PM0 whole entry) above

The term Ki denotes a dissociation constant, usually derived from enzyme kinetics or from competition with a known ligand. As usually defined, the EC50 is the midpoint of the concentration-response curve. Consider `N#C[C@H](CCc1ccccc1)NC(=O)[C@H](Cc1ccccc1)NC(=O)c1ccc(F)cc1`, for which the affinity at Rhodesain, expressed as Ki, was 0.07 µM. For the same compound, the figures for the EC50 in assay [1] and in assay [2] were 10.6 µM and 14.5 µM, respectively.

Regarding `N#C[C@H](CCc1ccccc1)NC(=O)[C@H](Cc1ccccc1)NC(=O)c1ccc(F)cc1F`, the EC50 in assay [1] stood at 18.7 µM; in assay [2] it was 23.4 µM.

`CC(C)C[C@H](NC(=O)c1cccc(F)c1)C(=O)N[C@H](C#N)CCc1ccccc1`: at Rhodesain, the Ki worked out at 0.016 µM. For the same compound, the inhibition entry in assay [3] is “Active”. Besides, the figures for the EC50 in assay [1] and in assay [2] were 10.1 µM and 14.1 µM, respectively.

On Rhodesain, `N#C[C@H](CCc1ccccc1)NC(=O)[C@H](Cc1ccccc1)NC(=O)c1c(F)cccc1F` yielded a Ki of 0.122 µM. Further, the concentration giving a half-maximal response (EC50) in assay [1] is 5.3 µM; in assay [2], 8.8 µM.

With `CC(C)C[C@H](NC(=O)c1ccccc1F)C(=O)N[C@H](C#N)CCc1ccccc1`, affinity at Rhodesain was put at a Ki of 0.032 µM. The results for the EC50 in assay [1] and in assay [2] were 21.1 µM and 32 µM, respectively.

In turn, `N#C[C@H](CCc1ccccc1)NC(=O)[C@H](Cc1ccccc1)NC(=O)c1cccc(F)c1` had a Ki at Rhodesain of 0.072 µM. Moreover, the EC50 in assay [1] worked out at 9.1 µM; in assay [2], 9.4 µM.

For `CC(C)C[C@H](NC(=O)c1ccc(F)cc1F)C(=O)N[C@H](C#N)CCc1ccccc1`, on Rhodesain, the affinity corresponds to a Ki of 0.066 µM. The EC50 in assay [1] is 19.3 µM; in assay [2], 22.5 µM.

Consider `CC(C)C[C@H](NC(=O)c1ccc(F)cc1)C(=O)N[C@H](C#N)CCc1ccccc1`, for which affinity on Rhodesain was put at a Ki of 0.052 µM. Further, the EC50 was found to be 13.3 µM in assay [1] and 18.7 µM in assay [2].

On Rhodesain, `CC(C)C[C@H](NC(=O)c1c(F)cccc1F)C(=O)N[C@H](C#N)CCc1ccccc1` gave a Ki of 0.052 µM. In addition, the results for the half-maximal effective concentration (EC50) in assay [1] and in assay [2] were 18.6 µM and 27.1 µM, respectively.

`N#C[C@H](CCc1ccccc1)NC(=O)[C@H](Cc1ccccc1)NC(=O)c1ccccc1F` registered a Ki at Rhodesain of 0.112 µM. In addition, the EC50 in assay [1] was 10.3 µM; in assay [2], 11.6 µM.

The values are drawn from ChEMBL document CHEMBL5154840, “Development of novel dipeptide nitriles as inhibitors of rhodesain of Trypanosoma brucei rhodesiense” (Eur J Med Chem, 2022).
